For 19 molecules, Ki results are on record in patent publication US9611277B2 (Janssen Pharmaceutica NV, priority 2013, dated 2017).

Some results are limits rather than exact numbers.

One experiment addresses rat orexin 1 receptor (Rattus norvegicus, UniProt P56718). Kind of experiment: Rat orexin 1 receptor radioligand binding. As to conditions: rat orexin 1 receptor; averages of 2-20 runs; read-out: rOX1 Ki. The method, then:
(§1) Data are analyzed using pc-Sandy macro and graphed on Graphpad Prism 5. For analysis, each concentration point is averaged from triplicate values and the averaged values are plotted on Graphpad Prism. The IC50 was determined by applying the following equation (GraphPad Prism 5.0, SanDiego) for one site competition where X=log (concentration) and Y=specific binding. Top denotes the total [^3H]-(1-(5-(2-fluoro-phenyl)-2-methyl-thiazol-4-yl)-1-((S)-2-(5-phenyl-(1,3,4)oxadiazol-2-ylmethyl)-pyrrolidin-1-yl)-methanone) binding, bottom denotes the nonspecific [^3H]-(1-(5-(2-fluoro-phenyl)-2-methyl-thiazol-4-yl)-1-((S)-2-(5-phenyl-(1,3,4)oxadiazol-2-ylmethyl)-pyrrolidin-1-yl)-methanone) binding. Graphpad Prism calculates Ki value from IC50 and the pre-determined Kd values for [^3H]-(1-(5-(2-fluoro-phenyl)-2-methyl-thiazol-4-yl)-1-((S)-2-(5-phenyl-(1,3,4)oxadiazol-2-ylmethyl)-pyrrolidin-1-yl)-methanone) and [3H]-EMPA. The Ki for each compound is then uploaded into 3DX. Each run comprises individual compounds in triplicate. The data in Table 1 and Table 2 represent averages from between 2-20 runs
(§2) Rat and Human Orexin 1 Receptor Radioligand Binding Studies
(§3) After centrifugation (2K×G, 5 min at 4° C.), the supernatant was aspirated and the pellets frozen and stored at −80° C. […] Each cell pellet from a 15 cm plate was resuspended in 10 mL, stored on ice, and homogenized for 45 sec prior to addition to the reactions. […] The final concentration of DMSO in the reactions is equal to or less than 0.1%. Total and nonspecific binding was determined in the absence and presence of 10 μM almorexant. The total volume of each reaction is 200 μL (20 μL of diluted compounds, 80 μL of [^3H]-(1-(5-(2-fluoro-phenyl)-2-methyl-thiazol-4-yl)-1-((S)-2-(5-phenyl-(1,3,4)oxadiazol-2-ylmethyl)-pyrrolidin-1-yl)-methanone) diluted in PBS and 100 μL of the cell suspension). […] The plates were washed 3 times by aspirating 30 ml PBS through the plates. Plates were dried in 55° C. oven for 60 min, scintillation fluid was added, and the radioactivity was counted on a Topcount (Packard).

The target of a further experiment is human orexin 1 receptor (Homo sapiens, UniProt O43613). Kind of experiment: Human orexin 1 receptor radioligand binding. As to conditions: human orexin 1 receptor; averages of 2-20 runs; read-out: hOX1 Ki. The protocol: as §1, §2, §3
Another experiment addresses human orexin 2 receptor (Homo sapiens (Human), UniProt O43614). The experiment in a line: Human orexin 2 receptor radioligand binding. Particulars: human orexin 2 receptor; averages of 2-20 runs; read-out: hOX2 Ki. The method, then:
as §1
Human Orexin 2 Receptor Radioligand Binding Studies
as §3, with “HEK293 stably expressing human orexin 2 receptor (Genebank accession number NM_001526) were grown to confluency in DMEM (Hyclone, cat # SH30022), 10% FBS, 1× Pen/Strep, 1× NaPyruvate, 10 mM HEPES, 600 ug/ml G418 media on 150 cm^2 tissue culture plates, washed with 5 mM EDTA in PBS (HyClone Dulbecco's Phosphate Buffered Saline 1× with Calcium and Magnesium, Cat # SH30264.01, hereafter referred to simply as PBS) and scraped into 50 ml tubes. After” for “After”, “sec just” for “sec”, “[^3H]-EMPA” for “[^3H]-(1-(5-(2-fluoro-phenyl)-2-methyl-thiazol-4-yl)-1-((S)-2-(5-phenyl-(1,3,4)oxadiazol-2-ylmethyl)-pyrrolidin-1-yl)-methanone)”

human orexin 2 receptor, sequence (O43614 whole entry): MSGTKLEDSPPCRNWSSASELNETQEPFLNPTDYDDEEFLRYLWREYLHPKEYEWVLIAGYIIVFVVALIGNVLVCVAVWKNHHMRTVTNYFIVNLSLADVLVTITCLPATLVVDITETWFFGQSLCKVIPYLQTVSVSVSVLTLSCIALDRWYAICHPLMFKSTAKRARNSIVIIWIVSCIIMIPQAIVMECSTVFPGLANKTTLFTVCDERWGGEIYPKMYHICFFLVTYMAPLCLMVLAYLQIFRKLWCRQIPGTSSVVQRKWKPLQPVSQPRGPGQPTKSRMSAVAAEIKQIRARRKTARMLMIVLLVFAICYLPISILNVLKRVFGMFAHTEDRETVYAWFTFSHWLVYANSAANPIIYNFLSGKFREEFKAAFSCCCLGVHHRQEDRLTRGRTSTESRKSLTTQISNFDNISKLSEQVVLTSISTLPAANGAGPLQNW

In the case of `O=C(c1cccc(F)c1-c1ncccn1)N1C[C@H]2C[C@@H](Nc3ncc(C(F)(F)F)cn3)[C@@H]1C2` [Example 68, (3-fluoro-2-(pyrimidin-2-yl)phenyl)((1S,4S,6R)-6-((5-(trifluoromethyl)pyrimidin-2-yl)amino)-2-azabicyclo[2.2.1]heptan-2-yl)methanone], the results for the inhibition constant Ki at rat orexin 1 receptor, at human orexin 1 receptor and at human orexin 2 receptor were 7 nM, 8 nM and 612 nM, respectively.
As for `O=C(c1cccc(F)c1-c1ncccn1)N1C[C@H]2C[C@@H](Oc3ccc(C(F)F)cn3)[C@@H]1C2` [Example 123, ((1S,4R,6R)-6-((5-(difluoromethyl)pyridin-2-yl)oxy)-2-azabicyclo[2.2.1]heptan-2-yl)(3-fluoro-2-(pyrimidin-2-yl)phenyl)methanone], the Ki stood at 11 nM at rat orexin 1 receptor, 10 nM at human orexin 1 receptor and 149 nM on human orexin 2 receptor.
The like results for `O=C(c1cccc(F)c1-c1ncccn1)N1C[C@H]2C[C@@H](Oc3ccc(F)cn3)[C@@H]1C2` [Example 120, (3-fluoro-2-(pyrimidin-2-yl)phenyl)((1S,4R,6R)-6-((5-fluoropyridin-2-yl)oxy)-2-azabicyclo[2.2.1]heptan-2-yl)methanone] were, in that order, 60 nM, 111 nM and 4100 nM.
The like results for `O=C(c1cccc(F)c1-n1nccn1)N1C[C@H]2C[C@@H](Nc3cnc(Cl)cn3)[C@@H]1C2` [Example 212, ((1S,4S,6R)-6-((5-chloropyrazin-2-yl)amino)-2-azabicyclo[2.2.1]heptan-2-yl)(3-fluoro-2-(2H-1,2,3-triazol-2-yl)phenyl)methanone] were, in that order, 14 nM, 9 nM and 607 nM.
The like results for `O=C(c1ccccc1-n1nccn1)N1C[C@H]2C[C@@H](Nc3ccc(Br)cn3)[C@@H]1C2` [Example 166, (2-(2H-1,2,3-triazol-2-yl)phenyl)((1S,4S,6R)-6-((5-bromopyridin-2-yl)amino)-2-azabicyclo[2.2.1]heptan-2-yl)methanone] were, in that order, 2 nM, 4 nM and 236 nM.
`CCc1cnc(O[C@@H]2C[C@H]3C[C@@H]2N(C(=O)c2ccccc2-n2nccn2)C3)nc1` [Example 135, (2-(2H-1,2,3-triazol-2-yl)phenyl)((1S,4R,6R)-6-((5-ethylpyrimidin-2-yl)oxy)-2-azabicyclo[2.2.1]heptan-2-yl)methanone]: the Ki at rat orexin 1 receptor turned out to be 61 nM; on human orexin 1 receptor, 100 nM; at human orexin 2 receptor, 1200 nM.
The like results for `Cc1cnc(C(=O)N2C[C@@H]3CC[C@H]2[C@H](Oc2ccc(C(F)(F)F)cn2)C3)c(-c2ncccn2)c1` [Example 264, (5-methyl-3-(pyrimidin-2-yl)pyridin-2-yl)((1S,4R,6R)-6-((5-(trifluoromethyl)pyridin-2-yl)oxy)-2-azabicyclo[2.2.2]octan-2-yl)methanone] were, in that order, 10 nM, 16 nM and above 10000 nM.
The like results for `CCN(c1ccc(C(F)(F)F)cn1)C1CC2CC1N(C(=O)c1cccc(F)c1-c1ncccn1)C2` (stereo not shown) [Example 160] were, in that order, 9 nM, 6 nM and 208 nM.
The corresponding values for `COc1ccc(C(=O)N2C[C@H]3C[C@@H](Oc4ccc(C(F)(F)F)cn4)[C@@H]2C3)c(-c2ncccn2)c1` [Example 295] are 19 nM, 34 nM and 5800 nM.
With `Cc1ccc(C(=O)N2C[C@H]3C[C@@H](Nc4ccc(C(F)(F)F)cn4)[C@@H]2C3)c(-n2nccn2)n1` [Example 143, (6-methyl-2-(2H-1,2,3-triazol-2-yl)pyridin-3-yl)((1S,4S,6R)-6-((5-(trifluoromethyl)pyridin-2-yl)amino)-2-azabicyclo[2.2.1]heptan-2-yl)methanone], the results for the Ki on rat orexin 1 receptor, at human orexin 1 receptor and on human orexin 2 receptor were 24 nM, 34 nM and 7300 nM, respectively.
The corresponding values for `O=C(c1cc(F)ccc1-n1nccn1)N1CC2CC(Nc3cnc(Cl)cn3)C1C2` [Example 213, 1S,4S,6R)-6-((5-chloropyrazin-2-yl)amino)-2-azabicyclo[2.2.1]heptan-2-yl)(5-fluoro-2-(2H-1,2,3-triazol-2-yl)phenyl)methanone] are 39 nM, 31 nM and 871 nM.
The like results for `Cc1ccc(O[C@@H]2C[C@H]3CC[C@@H]2N(C(=O)c2cccc(F)c2-c2ncccn2)C3)nc1` [Example 267, (3-fluoro-2-(pyrimidin-2-yl)phenyl)((1S,4R,6R)-6-((5-methylpyridin-2-yl)oxy)-2-azabicyclo[2.2.2]octan-2-yl)methanone] were, in that order, 26 nM, 19 nM and 1100 nM.
The like results for `O=C(c1c(F)cccc1-c1ncco1)N1C[C@H]2C[C@@H](Oc3ccc(C(F)(F)F)cn3)[C@@H]1C2` [Example 292, (2-fluoro-6-(oxazol-2-yl)phenyl)((1S,4R,6R)-6-((5-(trifluoromethyl)pyridin-2-yl)oxy)-2-azabicyclo[2.2.1]heptan-2-yl)methanone] were, in that order, 19 nM, 40 nM and 673 nM.
As for `Cc1cnc(N[C@@H]2C[C@H]3C[C@@H]2N(C(=O)c2cccc(F)c2-c2ncccn2)C3)cn1` [Example 219, (3-fluoro-2-(pyrimidin-2-yl)phenyl)((1S,4S,6R)-6-((5-methylpyrazin-2-yl)amino)-2-azabicyclo[2.2.1]heptan-2-yl)methanone], the results for the Ki on rat orexin 1 receptor, on human orexin 1 receptor and on human orexin 2 receptor were 20 nM, 27 nM and 480 nM, respectively.
With `O=C(c1ccccc1-n1nccn1)N1C[C@H]2C[C@@H](Oc3ccc(Br)cn3)[C@@H]1C2` [Example 49, (2-(2H-1,2,3-triazol-2-yl)phenyl)((1S,4R,6R)-6-((5-bromopyridin-2-yl)oxy)-2-azabicyclo[2.2.1]heptan-2-yl)methanone], the inhibition constant Ki at human orexin 1 receptor worked out at 5 nM; at human orexin 2 receptor, 443 nM.
`O=C(c1ccc(F)cc1-n1nccn1)N1C[C@H]2C[C@@H](Oc3ccc(C(F)(F)F)cn3)[C@@H]1C2` [Example 44, (4-fluoro-2-(2H-1,2,3-triazol-2-yl)phenyl)((1S,4R,6R)-6-((5-(trifluoromethyl)pyridin-2-yl)oxy)-2-azabicyclo[2.2.1]heptan-2-yl)methanone]: the Ki on human orexin 1 receptor amounted to 39 nM; on human orexin 2 receptor it was 2330 nM.
The like results for `Cc1ccc(-n2nccn2)c(C(=O)N2C[C@H]3C[C@@H](Oc4ccc(Br)cn4)[C@@H]2C3)n1` [Example 50, ((1S,4R,6R)-6-((5-bromopyridin-2-yl)oxy)-2-azabicyclo[2.2.1]heptan-2-yl)(6-methyl-3-(2H-1,2,3-triazol-2-yl)pyridin-2-yl)methanone] were, in that order, 10 nM and 578 nM.
The like results for `O=C(c1ccccc1-n1nccn1)N1C[C@H]2C[C@@H](Nc3cnc(C(F)(F)F)cn3)[C@@H]1C2` [Example 59, (2-(2H-1,2,3-triazol-2-yl)phenyl)((1S,4S,6R)-6-((5-(trifluoromethyl)pyrazin-2-yl)amino)-2-azabicyclo[2.2.1]heptan-2-yl)methanone] were, in that order, 7 nM and 192 nM.
Take `O=C(c1c(F)cccc1-c1ncccn1)N1C[C@H]2C[C@@H](Oc3ccc(Br)cn3)[C@@H]1C2` [Example 47, ((1S,4R,6R)-6-((5-bromopyridin-2-yl)oxy)-2-azabicyclo[2.2.1]heptan-2-yl)(2-fluoro-6-(pyrimidin-2-yl)phenyl)methanone]: the results for the inhibition constant Ki on rat orexin 1 receptor and on human orexin 1 receptor were 6 nM and 9 nM, respectively.

The term Ki denotes the dissociation constant of the complex between target and ligand, obtained from inhibition or displacement.
